Calls of active or inactive are those of the source.
Legend:
[1] = control 3'UTR Renilla luciferase suppression, dose response, counter-screen for Shn3 inhibitor project, cell-based, Clone20-Shn3RL, cherry-picked (AID 624133); assay type: functional
[2] = Shn3 3'UTR reporter inhibitors, dose response, cell-based, Clone20 osteoblasts, firefly luciferase, cherry-picked (AID 624132); assay type: functional;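 also: firefly luciferase luminescence from reporter carrying the Shn3 3'UTR in osteoblasts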
Protein Wnt-3a = Protein Wnt-3a (Mus musculus, UniProt P27467); test: Wnt3a-driven reporter signaling inhibition, dose response, selectivity assay for Gli-SUFU antagonist project, Wnt-LIGHT cells, luminescence (AID 651570); assay type: functional; conditions: read-out: IC50_Mean;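 also: Wnt-LIGHT reporter cells stimulated with conditioned medium from Wnt3a-producing cells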
Protein Wnt-3a, sequence (P27467 whole entry): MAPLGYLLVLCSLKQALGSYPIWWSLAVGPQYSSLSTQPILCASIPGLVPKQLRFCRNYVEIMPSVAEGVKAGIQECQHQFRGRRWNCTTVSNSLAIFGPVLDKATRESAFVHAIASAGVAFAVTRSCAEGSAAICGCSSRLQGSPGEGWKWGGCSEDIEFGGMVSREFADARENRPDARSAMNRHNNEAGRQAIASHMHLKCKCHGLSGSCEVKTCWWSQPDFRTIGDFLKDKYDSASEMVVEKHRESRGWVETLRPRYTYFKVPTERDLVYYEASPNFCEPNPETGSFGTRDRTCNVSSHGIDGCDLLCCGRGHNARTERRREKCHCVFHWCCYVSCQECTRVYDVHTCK

[3] = Luminescence Cell-Based Dose Response HTS to Identify Activators of Luciferase Translation or Activity in H4 […] Cells. [Related pubchem assays: 1829 (Project Summary), 1814 (Primary HTS)]; assay type: functional
[4] = biological target: T1, Sentrin-specific protease 8 (Homo sapiens, UniProt Q96LD8); test: SENP8 protease inhibitors, SAR follow-up, biochemical, luminescence (AID 504501); assay type: functional
T1 sequence (Q96LD8 whole entry): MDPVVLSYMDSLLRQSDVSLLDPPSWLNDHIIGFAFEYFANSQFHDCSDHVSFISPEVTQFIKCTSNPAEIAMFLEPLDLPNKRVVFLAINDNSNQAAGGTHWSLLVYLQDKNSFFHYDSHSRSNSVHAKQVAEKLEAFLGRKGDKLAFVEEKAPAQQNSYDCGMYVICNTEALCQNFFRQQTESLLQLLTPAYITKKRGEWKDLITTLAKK

[5] = Luminescence Cell-Based Dose Confirmation HTS to Identify Activators of 5'UTR Stem-Loop Driven Alpha-Synuclein mRNA Translation in H4 Neuroglioblastoma Cells. [Related pubchem assays: 1829 (Project Summary), 1814 (Primary HTS)]; assay type: functional
[6] = biological target: T2, Sentrin-specific protease 6 (Homo sapiens, UniProt Q9GZR1); test: SAR Analysis of small molecule inhibitors of Sentrin-specific protease 6 (SENP6) using a Luminescent assay. [Related pubchem assays (depositor defined):AID2582, AID2599]; assay type: functional
T2 sequence (Q9GZR1 whole entry): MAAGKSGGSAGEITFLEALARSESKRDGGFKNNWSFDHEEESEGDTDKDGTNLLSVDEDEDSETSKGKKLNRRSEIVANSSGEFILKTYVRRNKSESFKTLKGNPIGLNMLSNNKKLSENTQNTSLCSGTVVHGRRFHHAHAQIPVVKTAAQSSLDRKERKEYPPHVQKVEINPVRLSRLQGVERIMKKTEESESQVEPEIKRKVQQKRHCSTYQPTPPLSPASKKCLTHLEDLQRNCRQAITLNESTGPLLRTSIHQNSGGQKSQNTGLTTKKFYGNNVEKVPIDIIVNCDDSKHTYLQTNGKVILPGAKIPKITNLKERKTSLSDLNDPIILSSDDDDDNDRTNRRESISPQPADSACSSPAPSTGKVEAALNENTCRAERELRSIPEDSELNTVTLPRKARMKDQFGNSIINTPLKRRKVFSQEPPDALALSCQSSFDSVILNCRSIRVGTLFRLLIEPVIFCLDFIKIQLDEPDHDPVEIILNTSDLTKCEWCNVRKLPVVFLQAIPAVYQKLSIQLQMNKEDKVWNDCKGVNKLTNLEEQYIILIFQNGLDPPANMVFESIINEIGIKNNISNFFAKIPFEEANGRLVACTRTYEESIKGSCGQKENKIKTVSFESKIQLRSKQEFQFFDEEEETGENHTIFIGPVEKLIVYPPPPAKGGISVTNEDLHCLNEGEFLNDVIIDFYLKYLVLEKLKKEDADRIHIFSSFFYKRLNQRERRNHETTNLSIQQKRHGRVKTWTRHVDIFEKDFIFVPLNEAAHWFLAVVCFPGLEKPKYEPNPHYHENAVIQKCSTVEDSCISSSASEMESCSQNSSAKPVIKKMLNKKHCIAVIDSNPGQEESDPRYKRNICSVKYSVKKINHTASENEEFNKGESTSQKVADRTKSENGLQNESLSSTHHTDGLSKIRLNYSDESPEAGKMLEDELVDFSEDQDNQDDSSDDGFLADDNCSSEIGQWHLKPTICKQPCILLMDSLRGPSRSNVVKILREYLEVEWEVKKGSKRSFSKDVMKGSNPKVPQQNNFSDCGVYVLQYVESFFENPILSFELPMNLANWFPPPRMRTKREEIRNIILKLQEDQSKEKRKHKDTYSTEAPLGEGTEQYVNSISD

H4 = test: Luminescence Cell-Based Dose Response HTS to Identify Activators of 5'UTR Stem-Loop Driven Prion Protein mRNA Translation in H4 Neuroglioblastoma Cells. [Related pubchem assays: 1829 (Project Summary), 1814 (Primary HTS)]; assay type: functional; conditions: Homo sapiens
Caspase-3 = biological target: T3, Caspase-3 (Homo sapiens, UniProt P42574); test: SAR Analysis of small molecule inhibitors of Sentrin-specific proteases (SENPs) using a Caspase-3 Selectivity assay. [Related pubchem assays (depositor defined):AID2540, AID2599, AID434973, AID489001]; assay type: functional
T3 sequence (P42574 whole entry): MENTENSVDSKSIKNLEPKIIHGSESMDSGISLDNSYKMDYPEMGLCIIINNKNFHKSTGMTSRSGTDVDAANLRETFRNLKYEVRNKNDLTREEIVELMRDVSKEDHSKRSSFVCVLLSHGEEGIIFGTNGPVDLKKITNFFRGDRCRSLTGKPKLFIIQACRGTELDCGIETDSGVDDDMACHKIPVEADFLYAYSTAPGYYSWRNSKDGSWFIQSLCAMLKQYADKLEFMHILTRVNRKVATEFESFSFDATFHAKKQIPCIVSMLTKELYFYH

[7] = biological target: T4, High affinity choline transporter 1 (Homo sapiens, UniProt Q9GZV3); test: CHT inhibitors, dose response, cell-based, 10-point CRC, membrane potential dye (AID 588401); assay type: functional;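 also: membrane potential dye fluorescence of choline-evoked depolarization via CHT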
T4 sequence (Q9GZV3 whole entry): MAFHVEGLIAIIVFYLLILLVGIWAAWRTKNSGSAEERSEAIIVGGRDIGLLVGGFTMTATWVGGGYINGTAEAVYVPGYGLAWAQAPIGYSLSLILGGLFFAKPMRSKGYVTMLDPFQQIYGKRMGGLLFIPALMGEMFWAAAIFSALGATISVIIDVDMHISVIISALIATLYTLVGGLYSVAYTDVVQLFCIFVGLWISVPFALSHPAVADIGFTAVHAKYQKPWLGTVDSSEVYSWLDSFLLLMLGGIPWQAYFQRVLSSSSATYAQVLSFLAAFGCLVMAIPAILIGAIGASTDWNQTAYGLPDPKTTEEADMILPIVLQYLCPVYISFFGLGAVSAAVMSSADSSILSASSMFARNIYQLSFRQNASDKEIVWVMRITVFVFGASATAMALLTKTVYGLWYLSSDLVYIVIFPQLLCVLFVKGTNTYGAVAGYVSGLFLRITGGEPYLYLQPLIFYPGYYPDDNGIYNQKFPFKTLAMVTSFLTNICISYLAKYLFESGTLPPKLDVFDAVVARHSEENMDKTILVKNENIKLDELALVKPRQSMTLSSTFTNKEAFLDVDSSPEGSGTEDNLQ

[8] = biological target: T4, High affinity choline transporter 1; test: CHT inhibitors, dose response, cell-based, 5-point CRC, membrane potential dye (AID 504840); assay type: functional
[9] = biological target: T5, DNA repair protein RAD52 homolog (Homo sapiens, UniProt P43351); assay type: functional, biochemical
T5 sequence (P43351 whole entry): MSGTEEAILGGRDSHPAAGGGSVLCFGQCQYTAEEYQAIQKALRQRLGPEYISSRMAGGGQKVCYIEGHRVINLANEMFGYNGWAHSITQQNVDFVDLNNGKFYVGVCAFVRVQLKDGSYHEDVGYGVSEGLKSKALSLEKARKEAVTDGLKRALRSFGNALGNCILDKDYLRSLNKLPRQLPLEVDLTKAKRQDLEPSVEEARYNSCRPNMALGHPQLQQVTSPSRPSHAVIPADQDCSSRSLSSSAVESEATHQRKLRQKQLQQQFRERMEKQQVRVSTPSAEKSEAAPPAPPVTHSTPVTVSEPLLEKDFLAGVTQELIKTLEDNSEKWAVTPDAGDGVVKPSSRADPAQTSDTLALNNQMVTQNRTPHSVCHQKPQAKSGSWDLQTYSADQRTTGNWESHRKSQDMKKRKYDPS

[10] = biological target: T6, DNA repair and recombination protein RAD54-like (Homo sapiens, UniProt Q92698); test: inhibitors of human RAD54 branch migration, confirmation, biochemical, fluorescence, cherry-picked samples, dose series (AID 651657); assay type: functional
T6 sequence (Q92698 whole entry): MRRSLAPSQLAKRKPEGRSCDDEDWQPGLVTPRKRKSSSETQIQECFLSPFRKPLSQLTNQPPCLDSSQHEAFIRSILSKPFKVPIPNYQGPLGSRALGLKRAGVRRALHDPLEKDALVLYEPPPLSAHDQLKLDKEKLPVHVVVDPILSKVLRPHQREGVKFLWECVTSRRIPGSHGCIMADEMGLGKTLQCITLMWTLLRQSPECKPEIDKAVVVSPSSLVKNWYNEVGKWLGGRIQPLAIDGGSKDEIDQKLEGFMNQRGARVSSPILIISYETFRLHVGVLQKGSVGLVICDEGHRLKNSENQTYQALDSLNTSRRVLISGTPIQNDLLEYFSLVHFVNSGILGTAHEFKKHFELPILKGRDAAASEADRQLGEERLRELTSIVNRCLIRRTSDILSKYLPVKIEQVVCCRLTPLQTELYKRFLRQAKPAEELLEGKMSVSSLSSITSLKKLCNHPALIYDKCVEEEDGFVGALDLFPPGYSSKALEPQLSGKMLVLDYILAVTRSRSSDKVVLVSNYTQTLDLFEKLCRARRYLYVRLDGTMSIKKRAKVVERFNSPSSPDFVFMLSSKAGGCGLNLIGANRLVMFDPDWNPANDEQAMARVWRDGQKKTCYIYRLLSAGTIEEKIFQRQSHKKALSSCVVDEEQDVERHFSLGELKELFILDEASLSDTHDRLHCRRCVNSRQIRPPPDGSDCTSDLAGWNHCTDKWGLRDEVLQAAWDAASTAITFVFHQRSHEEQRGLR

[11] = biological target: T7, Short transient receptor potential channel 4 (Mus musculus, UniProt Q9QUQ5); test: mouse TRPC4 channel inhibitors, dose response, cell-based, HEK293 TRPC4/mu-opioid, Fluo-4 calcium (AID 434942); assay type: functional;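 also: potency of inhibitors blocking the TRPC4 calcium response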
T7 sequence (Q9QUQ5 whole entry): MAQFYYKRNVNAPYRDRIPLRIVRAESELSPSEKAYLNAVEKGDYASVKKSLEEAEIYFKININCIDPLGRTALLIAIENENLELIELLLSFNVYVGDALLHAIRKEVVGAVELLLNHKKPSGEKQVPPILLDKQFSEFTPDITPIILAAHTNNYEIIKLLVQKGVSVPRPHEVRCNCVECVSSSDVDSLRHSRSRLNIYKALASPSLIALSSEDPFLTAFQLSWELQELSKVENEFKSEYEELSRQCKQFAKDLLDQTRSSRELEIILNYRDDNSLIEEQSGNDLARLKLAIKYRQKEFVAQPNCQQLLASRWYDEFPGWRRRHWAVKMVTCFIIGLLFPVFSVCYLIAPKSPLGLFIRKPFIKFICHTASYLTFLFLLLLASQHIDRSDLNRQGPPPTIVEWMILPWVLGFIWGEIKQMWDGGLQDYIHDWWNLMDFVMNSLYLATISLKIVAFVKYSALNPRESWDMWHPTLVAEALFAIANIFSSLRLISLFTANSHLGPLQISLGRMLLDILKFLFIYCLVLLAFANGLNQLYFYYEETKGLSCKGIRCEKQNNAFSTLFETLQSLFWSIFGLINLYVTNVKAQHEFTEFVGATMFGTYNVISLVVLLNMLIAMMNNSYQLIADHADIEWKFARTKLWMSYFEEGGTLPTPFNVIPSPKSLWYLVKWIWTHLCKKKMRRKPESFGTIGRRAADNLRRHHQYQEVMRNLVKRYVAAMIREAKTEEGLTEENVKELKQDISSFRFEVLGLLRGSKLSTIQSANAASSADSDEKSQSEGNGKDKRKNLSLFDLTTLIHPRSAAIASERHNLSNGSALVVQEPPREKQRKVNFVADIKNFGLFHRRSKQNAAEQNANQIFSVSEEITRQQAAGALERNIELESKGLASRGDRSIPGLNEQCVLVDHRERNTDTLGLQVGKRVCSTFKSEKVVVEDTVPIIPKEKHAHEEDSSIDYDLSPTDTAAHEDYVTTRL

[12] = biological target: Ras and Rab interactor 1/Tyrosine-protein kinase ABL1 (Homo sapiens, UniProt P00519+Q13671); assay type: functional;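 also: biochemical TR-FRET dose-response test measuring inhibition of binding between Rin1 and Abl proteins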
Ras and Rab interactor 1/Tyrosine-protein kinase ABL1, sequence (P00519 whole entry): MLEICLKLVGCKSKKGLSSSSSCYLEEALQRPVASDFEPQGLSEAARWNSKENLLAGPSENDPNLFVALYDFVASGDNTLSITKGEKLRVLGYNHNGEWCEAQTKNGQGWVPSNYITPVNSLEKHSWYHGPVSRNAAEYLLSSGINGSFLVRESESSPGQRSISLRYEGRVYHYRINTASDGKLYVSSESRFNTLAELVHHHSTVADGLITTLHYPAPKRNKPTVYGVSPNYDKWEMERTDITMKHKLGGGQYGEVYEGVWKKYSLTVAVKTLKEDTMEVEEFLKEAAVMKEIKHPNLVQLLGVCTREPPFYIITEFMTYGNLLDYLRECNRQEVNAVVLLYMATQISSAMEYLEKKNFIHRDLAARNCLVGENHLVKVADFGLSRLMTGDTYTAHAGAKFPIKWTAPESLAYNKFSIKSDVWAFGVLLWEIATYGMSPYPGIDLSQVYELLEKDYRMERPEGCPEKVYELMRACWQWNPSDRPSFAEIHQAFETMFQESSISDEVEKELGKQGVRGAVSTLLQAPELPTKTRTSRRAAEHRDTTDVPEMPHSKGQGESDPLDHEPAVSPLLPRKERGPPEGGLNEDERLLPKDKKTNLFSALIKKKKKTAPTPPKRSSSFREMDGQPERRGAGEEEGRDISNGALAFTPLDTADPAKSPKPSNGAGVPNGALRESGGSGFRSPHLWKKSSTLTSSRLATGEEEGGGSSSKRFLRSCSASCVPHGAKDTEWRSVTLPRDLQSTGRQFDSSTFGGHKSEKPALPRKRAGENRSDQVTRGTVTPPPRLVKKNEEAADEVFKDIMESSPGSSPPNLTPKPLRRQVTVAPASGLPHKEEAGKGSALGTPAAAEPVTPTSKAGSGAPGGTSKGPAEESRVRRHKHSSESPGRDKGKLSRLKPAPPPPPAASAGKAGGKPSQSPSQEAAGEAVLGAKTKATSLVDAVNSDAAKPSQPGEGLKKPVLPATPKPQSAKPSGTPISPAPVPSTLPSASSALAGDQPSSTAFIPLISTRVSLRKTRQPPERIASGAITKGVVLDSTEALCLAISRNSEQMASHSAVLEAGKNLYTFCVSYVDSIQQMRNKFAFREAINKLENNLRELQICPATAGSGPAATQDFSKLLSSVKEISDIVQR
Ras and Rab interactor 1/Tyrosine-protein kinase ABL1, sequence (Q13671 whole entry): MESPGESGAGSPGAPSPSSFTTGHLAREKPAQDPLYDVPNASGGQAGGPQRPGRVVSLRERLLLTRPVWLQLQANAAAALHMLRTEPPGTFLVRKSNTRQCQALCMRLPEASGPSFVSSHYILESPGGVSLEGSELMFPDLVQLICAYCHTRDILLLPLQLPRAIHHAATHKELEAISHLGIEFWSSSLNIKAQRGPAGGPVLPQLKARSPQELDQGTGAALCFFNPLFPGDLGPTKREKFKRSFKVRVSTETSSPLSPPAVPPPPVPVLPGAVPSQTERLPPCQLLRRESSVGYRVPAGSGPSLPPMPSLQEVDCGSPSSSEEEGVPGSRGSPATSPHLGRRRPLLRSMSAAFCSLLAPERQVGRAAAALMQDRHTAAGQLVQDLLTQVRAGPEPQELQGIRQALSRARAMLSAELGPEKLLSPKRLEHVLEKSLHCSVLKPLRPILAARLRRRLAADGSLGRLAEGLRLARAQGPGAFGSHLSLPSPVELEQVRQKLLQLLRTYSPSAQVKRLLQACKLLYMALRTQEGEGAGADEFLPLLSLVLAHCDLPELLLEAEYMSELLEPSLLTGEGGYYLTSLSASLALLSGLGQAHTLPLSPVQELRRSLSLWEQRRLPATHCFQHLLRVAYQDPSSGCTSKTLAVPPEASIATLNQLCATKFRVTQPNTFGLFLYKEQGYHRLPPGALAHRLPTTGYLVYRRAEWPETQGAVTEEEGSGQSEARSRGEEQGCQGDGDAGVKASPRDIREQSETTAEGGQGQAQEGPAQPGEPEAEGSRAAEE

[13] = HepG2 cell cytotoxicity, dose response, cytotoxicity control for Shn3 inhibitor project, CellTiter-Glo, cherry-picked (AID 624134); assay type: functional, cell-based

In the case of `O=C(Cn1cc(C(=O)C2CC2)c2ccccc21)Nc1ccccc1Cl`, the AC50 [1] is reported as 4.12 µM (active), the AC50 [2] is reported as 3.42 µM (active) and the IC50 (Protein Wnt-3a) is reported as 5.2 µM (active).
In the case of `CC(=O)Nc1ccc(/C=C/c2n[nH]c(-c3ccccc3O)n2)cc1`, the EC50 [3] is reported as 13.6 µM (active), the IC50 [4] is reported as > 99 µM (inactive) and the EC50 [5] is reported as 2.79 µM (active). For the same compound, the IC50 [6] was > 99 µM (inactive), the EC50 (H4) was 1.33 µM (active) and the IC50 (Caspase-3) was 30 µM (active).
In the case of `CC(NC(=O)NC1CCCCC1)c1ccc2c(c1)OCO2` (centres undefined), the IC50 [7] is reported as 2.57 µM (active) and the IC50 [8] is reported as 3.47 µM (active).
For `COc1ccc(N(C)S(=O)(=O)c2cccc(C(=O)NC3CCCCC3C)c2)cc1` (centres undefined), the IC50 [7] was 7.08 µM (active) and the IC50 [8] was 4.79 µM (active).
With `CCCN1CCN(CCCN=C(S)Nc2ccc3nc(N4CCN(CC)CC4)cc(C)c3c2)CC1` the AC50 [9] was 1.71 µM (active), the IC50 [7] was 2.67 µM (active) and the AC50 [10] was 25.8 µM (active). For the same compound, the IC50 [8] was 2.3 µM (active).
For `Cc1c(C(=O)NCC(c2ccco2)N(C)C)oc2c(Cl)cccc12` (centres undefined), the EC50 [11] was 0.267 µM (active) and the IC50 [12] was 5.07 µM (active).
In the case of `CCCc1ncc(CN2CCC(C(=O)Nc3cccc(-c4cscn4)c3)CC2)cn1`, the IC50 [12] is reported as 22.3 µM (inactive).
With `Cc1cc(C)nc(SCC(=O)Nc2ccc(N3CCOCC3)c(Cl)c2)n1` the AC50 [1] was 3.13 µM (active), the AC50 [13] was > 70 µM (inactive) and the AC50 [2] was 1.66 µM (active). The IC50 (Protein Wnt-3a) was 5.24 µM (active).
